“Also recorded” adds a separate entry of the source.
What was measured:
[1] = tested on: PMA/LPS-stimulated THP-1 (M1 macrophages); experiment: Cytotoxicity assay on differentiated M1 macrophages (MTS); type: cell-based, human; conditions: PMA 24 h, LPS 24 h, then compound 24 h; up to 100 μM
Protocol: To confirm that the previous observations were a consequence of interference of the compounds with the differentiation process rather than a reduction in monocyte viability, THP-1 monocytes were incubated with different concentrations of the compound for 30 h. No difference in cell viability was detected. Moreover, the cytotoxic effects of the drugs on differentiated macrophages were evaluated. Following the incubation of THP-1 cells with 25 nM PMA for 24 h and 100 ng/ml LPS for 24 h, the differentiated macrophages were treated with different concentrations of the compounds for 24 h. Cell viability was assessed using MTS colorimetric cell viability kit (Abcam, Cambridge, UK).

[2] = tested on: formalin-induced rat paw oedema; experiment: Formalin-induced paw oedema test (acute inflammation model); type: in vivo, Wistar rats; conditions: oral 5 mg/kg once daily for seven days; oedema 4 h after formalin; vs diclofenac sodium and celecoxib 5 mg/kg
Protocol: A freshly prepared 5% formalin solution (prepared from 37% formaldehyde and saline (Merck, Germany)) was used as a phlogistic agent. Test and reference compounds (5 mg/kg body weight) were dissolved in DMSO and given orally with gastric gavage once per day for seven consecutive days, whereas DMSO was administered to the control group. On the 8th day, the initial paw volume was determined by a Vernier calliper. Then, a subcutaneous injection of 40 μl formalin was introduced into the right hind paw of all groups under light ether anaesthesia. The paw volume was measured 4 h after the formalin injection and the oedema volume was calculated by the difference in paw volume before and 4 h after the formalin injection. The percentage inhibition of oedema (or % protection against inflammation) was calculated for each compound as previously reported[34]^,[35].

THP-1 cells = experiment: Monocyte-to-macrophage differentiation assay, M1 polarisation (PMA then LPS); type: cell-based, human
Protocol: Monocytes were cultured and differentiated as described previously. THP-1 cells (human acute monocytic leukaemia lineage, American Type Culture Collection, Manassas, VA) were seeded at a density of 20 × 10^5 cells/ml. A set of cells were exposed to 25 nM of phorbol myristate-acetate (PMA, Calbiochem, Darmstadt, Germany) for 24 h to drive differentiation. Another set was similarly treated with PMA followed by 100 ng/ml of lipopolysaccharide (LPS, invivogen, San Diego, CA, USA) for 72 h. After incubation, the supernatant was aspirated and the density of the adherent cells was estimated using MTS colorimetric cell viability kit (Abcam, Cambridge, UK). The inhibitory actions of different compounds on the differentiation process were evaluated by pre-incubation with different concentrations of each compound for 6 h. Cell viability after treatment was normalised to the reading after PMA exposure following a 6-h incubation with DMSO. All experiments were conducted in triplicates. A positive control for the effect of COX1/COX2 inhibition on monocyte-to-macrophage differentiation was obtained by treatment with diclofenac. IC50 values for each compound were determined by non-linear regression as the best fit values of the log [inhibitor] vs. response curve using GraphPad Prism software.

[3] = tested on: cotton pellet-induced granuloma; experiment: Cotton pellet-induced granuloma assay (chronic inflammation model); conditions: oral 5 mg/kg daily; pellets excised on 8th day; vs diclofenac sodium and celecoxib

COc1ccc(-c2nn(-c3ccccc3)cc2/C=C2\SC(N3CCCCC3)=NC2=O)cc1 [Compound 7, (Z)-5-((3-(4-methoxyphenyl)-1-phenyl-1H-pyrazol-4-yl)methylene)-2-(piperidin-1-yl)thiazol-4(5H)-one]
M1 macrophage cell viability [1]: tended to slightly decrease
Inhibition of formalin-induced rat paw oedema (in words) [2]: as effective as either diclofenac or celecoxib
IC50 (THP-1 cells; Homo sapiens, THP-1, 6 h pre-incubation, PMA 25 nM 24 h then LPS 100 ng/ml 72 h, MTS, read-out: IC50 inhibition of THP-1 monocyte differentiation into M1 macrophages): 15 µM
Inhibition of THP-1 differentiation into M1 macrophages (in words) (THP-1 cells; PMA then LPS, diclofenac as reference): potent inhibitory effects on monocyte-to-macrophage differentiation; also recorded: higher potency compared to diclofenac
Inhibition of cotton pellet granuloma weight (in words) [3]: only superior to celecoxib

Source: PMC7901699, “Challenging inflammatory process at molecular, cellular and in vivo levels via some new pyrazolyl thiazolones” (Journal of Enzyme Inhibition and Medicinal Chemistry, 2021)
